Columns and labels:
Assay type in all cases: cell-based
full-length TIPARP = target: T1, full-length TIPARP (Homo sapiens, UniProt Q7Z3E1); test: NanoBRET probe displacement assay (Probe A) in live 293T cells, full-length TIPARP; details: NanoBRET displacement of Probe A, NanoLuc-tagged full-length TIPARP in live 293T cells
T1 construct: 1-657 of; expressed in transfected cells; host or cells: 293T cells (ATCC), pcDNA3.1
T1 sequence (Q7Z3E1 1-657): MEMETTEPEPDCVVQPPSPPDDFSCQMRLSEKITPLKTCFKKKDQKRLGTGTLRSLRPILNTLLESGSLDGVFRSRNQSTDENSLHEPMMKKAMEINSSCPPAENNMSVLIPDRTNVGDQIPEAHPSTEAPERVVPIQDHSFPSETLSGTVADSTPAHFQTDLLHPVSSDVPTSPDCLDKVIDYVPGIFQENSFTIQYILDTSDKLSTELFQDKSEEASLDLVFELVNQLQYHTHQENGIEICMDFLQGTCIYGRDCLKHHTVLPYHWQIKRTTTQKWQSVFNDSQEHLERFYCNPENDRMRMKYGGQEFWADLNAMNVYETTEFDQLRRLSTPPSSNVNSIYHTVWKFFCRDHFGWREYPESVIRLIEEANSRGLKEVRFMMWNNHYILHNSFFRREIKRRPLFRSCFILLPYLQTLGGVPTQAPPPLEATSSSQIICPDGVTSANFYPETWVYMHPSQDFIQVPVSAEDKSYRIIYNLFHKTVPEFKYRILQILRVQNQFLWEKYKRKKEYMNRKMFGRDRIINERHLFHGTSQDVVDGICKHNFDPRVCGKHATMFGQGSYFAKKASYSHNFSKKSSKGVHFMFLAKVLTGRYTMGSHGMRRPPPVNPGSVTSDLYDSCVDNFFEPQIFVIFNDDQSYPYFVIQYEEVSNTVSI
Procedure: (§1) MonoPARP genes from Table 5 were cloned into the pcDNA3.1-mammalian expression vector as a NanoLuc fusion with NanoLuc on the N- or C-terminus as indicated. The sequence of the NanoLuc tag is as follows: [table] Displacement of a fluorescently-labeled compound Probe A binding to NanoLuc-tagged monoPARP enzymes was measured in live cells using a bioluminescence resonance energy transfer (NanoBRET) assay. TIPARP, PARP10, PARP12 or PARP14 fused to a NanoLuc tag were overexpressed in 293T cells (ATCC) using the plasmids described herein. Plasmid DNA and empty vector DNA were added to phenol red free OptiMEM (Thermo Fisher) as shown in Table 6 in a total volume of 2.456 mL. 157 μL of Fugene HD (Promega) was added to the DNA mixture and allowed to incubate 5 min at 25° C. [table] Next, 2.375 mL of the plasmid-Fugene mixture were added to 20 million 293T cells in DMEM (Thermo Fisher) supplemented with 10% FBS (VWR). The transfection was incubated for 24 h at 37° C. in an incubator containing air supplemented with 5% CO2. The cells were resuspended in phenol red free OptiMEM media. 40 μL of cells were then added to white polystyrene 384-well non-binding surface microplate (Corning). […] Filtered luminescence was measured on an Envision (Perkin Elmer) equipped with a dual 585 nm mirror, 460±40 nm bandpass filter (donor) and 610±50 nm longpass filter (acceptor). […]

catalytic domain TIPARP = target: T2, catalytic domain TIPARP (Homo sapiens, UniProt Q7Z3E1); test: NanoBRET probe displacement assay (Probe A) in live 293T cells, catalytic domain TIPARP; details: NanoBRET displacement of Probe A, NanoLuc-tagged catalytic domain TIPARP in live 293T cells
T2 construct: 456-657 of; expressed in transfected cells; host or cells: 293T cells (ATCC), pcDNA3.1
T2 sequence (Q7Z3E1 456-657): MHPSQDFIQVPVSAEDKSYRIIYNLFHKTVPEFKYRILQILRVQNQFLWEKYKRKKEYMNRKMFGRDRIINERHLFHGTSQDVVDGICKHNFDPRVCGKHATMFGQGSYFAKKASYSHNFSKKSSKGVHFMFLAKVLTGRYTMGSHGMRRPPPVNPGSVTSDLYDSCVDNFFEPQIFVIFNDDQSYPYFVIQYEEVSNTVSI
Procedure: as §1

PARP12 = target: T3, PARP12 (Homo sapiens, UniProt Q9H0J9); test: NanoBRET probe displacement assay (Probe A) in live 293T cells, PARP12; design: 489-684 of; expressed in transfected cells; host or cells: 293T cells (ATCC), pcDNA3.1; details: NanoBRET displacement of Probe A, NanoLuc-tagged PARP12 in live 293T cells
T3 sequence (Q9H0J9 489-684): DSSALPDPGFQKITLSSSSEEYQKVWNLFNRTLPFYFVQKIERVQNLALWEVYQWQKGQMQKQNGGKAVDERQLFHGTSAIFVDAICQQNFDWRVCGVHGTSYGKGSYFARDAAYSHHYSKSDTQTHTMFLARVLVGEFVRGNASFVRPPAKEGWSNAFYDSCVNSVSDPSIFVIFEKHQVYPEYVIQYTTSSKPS
Procedure: as §1

PARP10 = target: T4, PARP10 (Homo sapiens, UniProt Q53GL7); test: NanoBRET probe displacement assay (Probe A) in live 293T cells, PARP10; details: NanoBRET displacement of Probe A, NanoLuc-tagged PARP10 in live 293T cells
T4 sequence (Q53GL7 808-1025): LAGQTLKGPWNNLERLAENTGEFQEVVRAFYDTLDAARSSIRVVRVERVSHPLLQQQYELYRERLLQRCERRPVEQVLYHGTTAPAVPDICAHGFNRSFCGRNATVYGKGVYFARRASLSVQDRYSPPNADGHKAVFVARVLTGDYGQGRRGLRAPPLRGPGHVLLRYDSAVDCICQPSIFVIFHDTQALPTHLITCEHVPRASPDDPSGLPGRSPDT
Procedure: as §1

| IC50 (full-length TIPARP) [nM] | IC50 (catalytic domain TIPARP) [nM] | IC50 (PARP12) [nM] | IC50 (PARP10) [nM] | SMILES |
| --- | --- | --- | --- | --- |
| 4 | 7 | 170 |  | N#Cc1ccc(N2CCN(C(=O)c3cccc(OC[C@@H]4c5ccccc5CN4c4cn[nH]c(=O)c4C(F)(F)F)c3)CC2)nc1 [Compound B, 6-[4-[(3-[[(1S)-2-[6-Oxo-5-(trifluoromethyl)-1,6-dihydropyridazin-4-yl]-2,3-dihydro-1H-isoindol-1-yl]methoxy]phenyl)carbonyl]piperazin-1-yl]pyridine-3-carbonitrile] |
|  |  |  | 4 | CC(=O)N1CCC(Oc2ccc3c(n2)CN(c2cn[nH]c(=O)c2C(F)(F)F)C3)CC1 [Compound C, 5-[2-[(1-Acetylpiperidin-4-yl)oxy]-5H,6H,7H-pyrrolo[3,4-b]pyridin-6-yl]-4-(trifluoromethyl)-2,3-dihydropyridazin-3-one] |
